Earlier results as cited in paper PMC10664590 (Chemical Science, 2023).

SMILES: O=c1ccc2ccc(O)cc2o1 [7-hydroxy-cumarine]
- long-wavelength absorption maximum: around 330 nm
- fluorescence maximum (in ethanol): around 380 nm
